We go through one compound from ChEMBL document CHEMBL1649453, “Activity of temocillin against KPC-producing Klebsiella pneumoniae and Escherichia coli” (Antimicrob Agents Chemother, 2009).

The subject of data set [1] is Klebsiella pneumoniae. As to the kind of experiment: Antimicrobial activity against Klebsiella pneumoniae expressing beta-lactamase KPC gene by agar dilution method. The class given is functional.
The test system of data set [2] is Escherichia coli. Put plainly: Antimicrobial activity against Escherichia coli clinical isolates expressing beta-lactamase KPC gene by agar dilution method. In kind it is functional.
The test system of data set [3] is Escherichia coli. Put plainly: Antimicrobial activity against Escherichia coli DH10B harboring pBCSK plasmid expressing beta-lactamase KPC gene by agar dilution method. The settings on record: K-12 DH10B. In kind it is functional.
For data set [4], the system named is Escherichia coli. Put plainly: Antimicrobial activity against Escherichia coli DH10B by agar dilution method. In kind it is functional. The settings on record: K-12 DH10B.
The nature of data set [5]: Cmax in human serum at 1 gram, iv. In kind it is ADME, organism-based. Details: route intravenous.
Data set [6] can be described thus: Protein binding in human serum at 1 gram, iv. In kind it is ADME, organism-based. As to conditions: read-out: PB (converted).
A short description of data set [7]: Half life in human serum at 1 gram, iv. The class given is ADME, organism-based.
A short description of data set [8]: Drug level in human urine at 500 mg, im bid for 3 days. In kind it is ADME, organism-based. As to conditions: read-out: Drug uptake.

SMILES strings stand for the structures. ≈ marks a conversion by molar mass, not a printed value.

In turn, `CO[C@@]1(NC(=O)C(C(=O)O)c2ccsc2)C(=O)N2[C@@H](C(=O)O)C(C)(C)S[C@@H]21` (some centres undefined) [TEMOCILLIN] showed an MIC50 in data set [1] of 32 µg/mL (≈ 77.2 µM). The MIC90 in data set [1] amounted to 32 µg/mL (≈ 77.2 µM). The MIC in data set [2], in data set [3] and in data set [4] was 8 µg/mL (≈ 19.3 µM) in each case. This compound also displayed a Cmax in data set [5] of 160 µg/mL. Further, the fraction unbound in data set [6] was 0.15. Moreover, in data set [7], the half-life is 4 h. Also, the concentration at 72 h in data set [8] was 500 µg/mL.
